Assay results published in US20170231928A1, “SOLID COMPOSITION OF FINGOLIMOD AND PREPARATION THEREOF” (SUNSHINE LAKE PHARMA CO., LTD., priority 2014, published 2017).

Experiment: Excipient compatibility test: API and diluents, related substances
Type: physicochemical
Method: Some API and excipients mixture were weighed, placed in the vials, added with appropriate amount of purified water (w/w), and then sealed (simulated hot and humid environment) and placed in 60° C. oven. Sampled on the 10th day, and tested the content (%) of the related substances (single impurity and total impurities).

[1] = After 10 days (60° C.), water added, sealed

CCCCCCCCc1ccc(CCC(N)(CO)CO)cc1 [API, 2-amino-2-[2-(4-octylphenyl)ethyl]propan-1,3-diol]
Related substances RRT = 0.84 (0 day): 0.06% | Related substances Total impurities (0 day): 0.06% | Related substances RRT = 0.84 [1]: 0.07% | Related substances RRT = 1.35 [1]: 0.03% | Related substances Total impurities [1]: 0.10%
